Measured values reported in the supplement of paper PMC10307832.

How the values were obtained:
Assay in all cases: relative viability (nuclei count vs DMSO), 5 days (fraction); higher = more cells survive
[1] = compound: CC1=CC=C(C=C1)C(=O)CN2C3=C(CCCC3)SC2=N [Pifithrin_alpha] + CCNC(=O)c1noc(-c2cc(C(C)C)c(O)cc2O)c1-c1ccc(CN2CCOCC2)cc1 [Luminespib] (partner 0.01 µM)
Outline: (§1)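 For relative viability, nuclei counts in treated wells were divided by those in vehicle wells. Lung cancer cell lines had been pin-tool dosed in 1536-well plates the day after seeding and cultured for 5 days, then fixed and stained in one step (final 0.05% Triton X-100, 1% formaldehyde, 1 ug/ml Hoechst) and imaged at 4×. Doses were one drug alone or a fixed anchor-drug dose plus five library-drug doses (not always all listed) in √10 steps, and values are duplicate-plate medians.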

[2] = compound: CC1=CC=C(C=C1)C(=O)CN2C3=C(CCCC3)SC2=N [Pifithrin_alpha] + Nc1nc2[nH]cc(CCc3ccc(C(=O)N[C@@H](CCC(=O)O)C(=O)O)cc3)c2c(=O)[nH]1 [Pemetrexed] (partner 0.2 µM)
Outline: as §1

[3] = compound: CNC(=O)c1ccccc1Sc1ccc2c(/C=C/c3ccccn3)n[nH]c2c1 [Axitinib] + COc1cc2c(Oc3ccc(NC(=O)C4(C(=O)Nc5ccc(F)cc5)CC4)cc3F)ccnc2cc1OCCCN1CCOCC1 [Foretinib] (partner 0.25 µM)
Outline: as §1

[4] = compound: Nc1nc(Nc2ccc3c(c2)CC[C@@H](N2CCCC2)CC3)nn1-c1cc2c(nn1)-c1ccccc1CCC2 [Bemcentinib] + COc1cccc2cc(-c3nc([C@H]4CC[C@H](C(=O)O)CC4)n4ncnc(N)c34)[nH]c12 [OSI-027] (partner 0.5 µM)
Outline: as §1

Cell Line	relative viability ([1]; first compound 3.162 µM)	relative viability ([1]; first compound 10 µM)	relative viability ([1]; first compound 31.62 µM)	relative viability ([1]; first compound 100 µM)	relative viability ([2]; first compound 1 µM)	relative viability ([2]; first compound 3.162 µM)	relative viability ([2]; first compound 10 µM)	relative viability ([2]; first compound 31.62 µM)	relative viability ([2]; first compound 100 µM)	relative viability ([3]; first compound 0.005 µM)	relative viability ([3]; first compound 0.01581 µM)	relative viability ([3]; first compound 0.05 µM)	relative viability ([3]; first compound 0.1581 µM)	relative viability ([3]; first compound 0.5 µM)	relative viability ([4]; first compound 0.04 µM)	relative viability ([4]; first compound 0.1265 µM)	relative viability ([4]; first compound 0.4 µM)	relative viability ([4]; first compound 4 µM)	relative viability ([1]; first compound 1 µM)	relative viability ([4]; first compound 1.265 µM)
NCI-H1793	0.168	0.17	0.186	0.194	0.538	0.79	0.888	0.671	0.695	0.851	0.597	0.764	0.65	0.687	0.265	0.305	0.299	0.282		
HCC-78						0.937	0.941	0.901	0.944	0.582	0.536	0.512	0.6	0.548	0.343	0.348	0.38	0.371		
NCI-H322M	0.868	0.841	0.647	0.766	0.635	0.599	0.605	0.578	0.511	1.18	0.926	0.922	0.859	1.12	0.585	0.596	0.597	0.597	0.865	0.621
COR-L23	0.865	0.562		0.484	0.19	0.201	0.196		0.181	1.1	0.953	1.13	0.948	1.02	0.665	0.969	0.905	0.888	0.703	0.788
201T	0.805	0.917	0.8	0.766	0.315	0.337	0.296	0.29	0.295	1.07	1.06	0.972	1.17	1.21	0.599	1.02	0.778	0.801	1.23	0.709
NCI-H2347	0.541	0.392	0.288	0.254	0.406	0.416	0.441	0.485	0.447	0.954	0.747	1.12	1.11	0.799	0.413	0.454	0.386	0.422	0.921	0.429
LCLC-97TM1	0.783	0.774	0.423	0.808		0.184	0.183		0.15	0.847	0.977	0.926	0.896	0.918	0.649	0.527	0.538	0.598	0.742	0.542
NCI-H2126	0.956	0.783	0.709	0.72	0.448	0.656	0.625	0.56	0.643	1.27	0.967	1.09	1.21	1.26	0.679	0.692	0.756	0.683	0.751	0.688
